# According to the supplement of paper PMC11061612:
# Key:
# [1] = test system: COR-L95 (Small Cell Lung Carcinoma); assay: combination Emax (second highest fraction inhibited in the dose matrix, 72 h); higher = more inhibition; extreme values may be limits of the assay
# Summary of the method: (§1)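 Bliss excess equals the observed combination effect minus the expected value EA + EB − EA·EB, where EA and EB are the effects of each agent alone. Combination Emax is the second-highest inhibition within the matrix. Inhibition was scaled from CellTiter-Glo 2.0 luminescence, with 0 set by vehicle wells and 1 by blank wells, after 72 hours of two-drug dosing of cells plated in 1536-well plates.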
# [2] = test system: SW1088 (Low Grade Glioma); assay: as above
# Summary of the method: as §1
compound,measurement,setting,value
"Cc1c2c(nn1C)CSCc1cc(n(C)n1)CSc1cc(c3ccccc3c1)OCCCc1c(C(=O)O)n(C)c3c-2c(Cl)ccc13 [AZD5991] + CN(C)CCCOc1ccc(-c2ccc3ncc4c(c3c2)n(C2CCOCC2)c(=O)n4C)cn1 [AZD0156] (first compound max 1 µM, 7x7, partner max 1 µM)",combination Emax,[1],0.378
same,combination Emax,[2],0.242
"CN(CCO)CC[C@H](CSc1ccccc1)Nc1ccc(S(=O)(=O)NC(=O)c2ccc(N3CCC([C@@H](O)c4ccccc4-c4ccc(Cl)cc4)CC3)cc2)cc1S(=O)(=O)C(F)(F)F [AZD4320] + CN(C)CCCOc1ccc(-c2ccc3ncc4c(c3c2)n(C2CCOCC2)c(=O)n4C)cn1 [AZD0156] (first compound max 1 µM, 7x7, partner max 1 µM)",combination Emax,[1],1
same,combination Emax,[2],0.164
"CC1(C)CCC(CN2CCN(c3ccc(C(=O)NS(=O)(=O)c4ccc(NCC5CCOCC5)c([N+](=O)[O-])c4)c(Oc4cnc5[nH]ccc5c4)c3)CC2)=C(c2ccc(Cl)cc2)C1 [Venetoclax] + CCN(CCO)CCCOc1ccc2c(Nc3cc(CC(=O)Nc4cccc(F)c4)[nH]n3)ncnc2c1 [AZD2811] (first compound max 1 µM, 7x7, partner max 1 µM)",combination Emax,[1],0.743
same,combination Emax,[2],0.474
"CN(CCO)CC[C@H](CSc1ccccc1)Nc1ccc(S(=O)(=O)NC(=O)c2ccc(N3CCC([C@@H](O)c4ccccc4-c4ccc(Cl)cc4)CC3)cc2)cc1S(=O)(=O)C(F)(F)F [AZD4320] + C[C@@H]1COCCN1C2=NC(=NC(=C2)C3(CC3)[S@](=N)(=O)C)C4=C5C=CNC5=NC=C4 [AZD6738] (first compound max 1 µM, 7x7, partner max 10 µM)",combination Emax,[1],1
same,combination Emax,[2],0.586
"Cc1c2c(nn1C)CSCc1cc(n(C)n1)CSc1cc(c3ccccc3c1)OCCCc1c(C(=O)O)n(C)c3c-2c(Cl)ccc13 [AZD5991] + C1CN(CCC1(C(=O)N[C@@H](CCO)C2=CC=C(C=C2)Cl)N)C3=NC=NC4=C3C=CN4 [Capivasertib] (first compound max 1 µM, 7x7, partner max 3 µM)",combination Emax,[1],0.409
same,combination Emax,[2],0.527
"CC1(C)CCC(CN2CCN(c3ccc(C(=O)NS(=O)(=O)c4ccc(NCC5CCOCC5)c([N+](=O)[O-])c4)c(Oc4cnc5[nH]ccc5c4)c3)CC2)=C(c2ccc(Cl)cc2)C1 [Venetoclax] + C[C@@H](Nc1cc(F)cc(F)c1)c1cc(C(=O)N(C)C)cc2c(=O)cc(N3CCOCC3)oc12 [AZD8186] (first compound max 1 µM, 7x7, partner max 3 µM)",combination Emax,[1],0.782
same,combination Emax,[2],0.493
"CC1(C)CCC(CN2CCN(c3ccc(C(=O)NS(=O)(=O)c4ccc(NCC5CCOCC5)c([N+](=O)[O-])c4)c(Oc4cnc5[nH]ccc5c4)c3)CC2)=C(c2ccc(Cl)cc2)C1 [Venetoclax] + C=CCn1c(=O)c2cnc(Nc3ccc(N4CCN(C)CC4)cc3)nc2n1-c1cccc(C(C)(C)O)n1 [AZD1775] (first compound max 1 µM, partner max 1 µM)",combination Emax,[1],0.862
same,combination Emax,[2],0.648
"Cc1c2c(nn1C)CSCc1cc(n(C)n1)CSc1cc(c3ccccc3c1)OCCCc1c(C(=O)O)n(C)c3c-2c(Cl)ccc13 [AZD5991] + C[C@@H]1COCCN1C2=NC(=NC(=C2)C3(CC3)[S@](=N)(=O)C)C4=C5C=CNC5=NC=C4 [AZD6738] (first compound max 1 µM, 7x7, partner max 10 µM)",combination Emax,[1],0.638
same,combination Emax,[2],0.565
"CC1(C)CCC(CN2CCN(c3ccc(C(=O)NS(=O)(=O)c4ccc(NCC5CCOCC5)c([N+](=O)[O-])c4)c(Oc4cnc5[nH]ccc5c4)c3)CC2)=C(c2ccc(Cl)cc2)C1 [Venetoclax] + CN(C)CCCOc1ccc(-c2ccc3ncc4c(c3c2)n(C2CCOCC2)c(=O)n4C)cn1 [AZD0156] (first compound max 1 µM, 7x7, partner max 1 µM)",combination Emax,[1],0.535
same,combination Emax,[2],0.238
"CC1(C)CCC(CN2CCN(c3ccc(C(=O)NS(=O)(=O)c4ccc(NCC5CCOCC5)c([N+](=O)[O-])c4)c(Oc4cnc5[nH]ccc5c4)c3)CC2)=C(c2ccc(Cl)cc2)C1 [Venetoclax] + C1CN(CCC1(C(=O)N[C@@H](CCO)C2=CC=C(C=C2)Cl)N)C3=NC=NC4=C3C=CN4 [Capivasertib] (first compound max 1 µM, 7x7, partner max 3 µM)",combination Emax,[1],0.719
same,combination Emax,[2],0.494
